Data on twelve compounds can be found in ChEMBL document CHEMBL1201862, “PubChem BioAssay data set” (2004).

Test systems include HCT-15; HOP-62; SF-268; SK-MEL-2; SW-620; UO-31; NCI-H23; PC-3; OVCAR-3; SN12C; KM12; U-251; MDA-MB-231; 786-0; NCI/ADR-RES; SR; SK-MEL-5; EKVX; NCI-H460; NCI-H226.
Holding throughout (experiment): DTP human tumour cell line panel, 48 h

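Values below derive from 48-hour exposures of cells grown in 96-well plates, with endpoints linearly interpolated between the two concentrations bracketing the appropriate inhibition level. GI50: concentration for 50% inhibition of growth.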 Activity calls are given as the source filed them. Rule as the data show it: active = GI50 up to about 1.1 µM and inactive = higher.

With `Cc1ccc(/C=c2\c(=O)[nH]c3nc4ccccc4c(=O)n23)cc1`, the GI50 in the test on HCT-15 is 34.8 µM; in the test with HOP-62 it was > 100 µM (inactive); in the test with SF-268, 45.5 µM (inactive); in the test on SK-MEL-2, 62.2 µM (inactive); in the test on SW-620, 21.8 µM (inactive); in the test with UO-31, 57.5 µM (inactive). In addition, the GI50 with NCI-H23 was 34.4 µM (inactive); with PC-3, 55.5 µM (inactive); with OVCAR-3, 32.8 µM (inactive); in the test on SN12C, 28.8 µM (inactive); with KM12, 45.7 µM (inactive); with U-251, 19.9 µM (inactive). The figures for the GI50 in the test on MDA-MB-231, in the test with 786-0 and in the test on NCI/ADR-RES were 43.9 µM (inactive), 39.4 µM (inactive) and 39.4 µM (inactive), respectively.
In the case of `COc1ccccc1C#C/C=C\C#Cc1ccccc1C#N`, the GI50 is 4.08 µM (inactive) in the test on SR; 6.93 µM with HCT-15; 14.5 µM (inactive) with HOP-62; 19.4 µM (inactive) in the test on SF-268; 14.9 µM (inactive) in the test on SK-MEL-2; 2.09 µM (inactive) in the test on SK-MEL-5. Besides, the GI50 is 6.32 µM (inactive) in the test with SW-620; 10.9 µM (inactive) with UO-31; 5.61 µM (inactive) with NCI-H23; 13.2 µM (inactive) in the test on PC-3; 4.4 µM (inactive) in the test on OVCAR-3; 26 µM (inactive) in the test on SN12C. Further, the GI50 in the test on KM12 is 6.37 µM (inactive); in the test with EKVX, 5.94 µM (inactive); in the test on U-251, 9.18 µM (inactive); in the test with 786-0, 18.5 µM (inactive); in the test with NCI-H460, 13.3 µM (inactive); with NCI/ADR-RES, 10.4 µM (inactive).
`O=C(CC1C(=O)Nc2ccccc2[S+]1[O-])Nc1cc(Cl)ccc1Cl` (stereo not drawn): the GI50 is > 100 µM (inactive) with SR; above 100 µM with HCT-15; > 100 µM (inactive) in the test on SF-268; > 100 µM (inactive) in the test with SK-MEL-2; > 100 µM (inactive) with SK-MEL-5; > 100 µM (inactive) with SW-620. Also, the GI50 in the test on UO-31, in the test with NCI-H23, in the test on NCI-H226, in the test on OVCAR-3, in the test with SN12C and in the test on EKVX was > 100 µM (inactive) each time. For the same compound, the GI50 with U-251, in the test on 786-0 and with NCI-H460 was > 100 µM (inactive) throughout.
Take `Nn1c(S)nnc1N/N=C1/C(=O)Nc2c(Cl)cc(Cl)cc21`: the GI50 is 38.3 µM (inactive) in the test with SR; above 100 µM in the test with HCT-15; 50.4 µM (inactive) with HOP-62; > 100 µM (inactive) in the test on SF-268; > 100 µM (inactive) in the test with SK-MEL-2; > 100 µM (inactive) in the test with SK-MEL-5. The GI50 with SW-620 was > 100 µM (inactive); with UO-31, 47.6 µM (inactive); in the test on NCI-H23 it was > 100 µM (inactive); with NCI-H226 it was 52.1 µM (inactive); in the test on OVCAR-3, > 100 µM (inactive); with SN12C, 94.8 µM (inactive). Moreover, the GI50 is > 100 µM (inactive) in the test on KM12; > 100 µM (inactive) with EKVX; > 100 µM (inactive) in the test with U-251; 97.3 µM (inactive) in the test with 786-0; > 100 µM (inactive) in the test on NCI-H460.
With `CCOC(=O)c1c(-c2ccc(OC)c(O)c2)c(C#N)c(=S)n(C2OC(CO)C(O)C(O)C2O)c1-c1ccccc1` (stereo not drawn), the GI50 with SR is > 100 µM (inactive); with HCT-15, above 100 µM; in the test with HOP-62, > 100 µM (inactive); with SF-268, > 100 µM (inactive); with SK-MEL-5 it was > 100 µM (inactive); in the test with SW-620, > 100 µM (inactive). The GI50 in the test with UO-31, in the test with NCI-H23, with PC-3, in the test on NCI-H226, in the test with SN12C and in the test on KM12 was > 100 µM (inactive) each time. Also, the GI50 is 1.6 µM (inactive) in the test with EKVX; > 100 µM (inactive) in the test with U-251; > 100 µM (inactive) in the test with 786-0; > 100 µM (inactive) in the test with NCI-H460; > 100 µM (inactive) with NCI/ADR-RES.
Turning to `CC(C)(C)n1[nH]c(=O)n(C(C)(C)C)c1=O`, the GI50 is > 100 µM (inactive) in the test on SR; above 100 µM in the test with HCT-15; > 100 µM (inactive) in the test on SF-268; > 100 µM (inactive) in the test on SK-MEL-2; > 100 µM (inactive) with SK-MEL-5; > 100 µM (inactive) in the test on SW-620. Moreover, the GI50 with UO-31, in the test on NCI-H23, in the test on PC-3, with OVCAR-3, in the test on SN12C and with KM12 was > 100 µM (inactive) in each case. For the same compound, the GI50 in the test with U-251, in the test on MDA-MB-231, with 786-0 and with NCI-H460 was > 100 µM (inactive) throughout.
`C[Si](C)(C)/C=C/CN1C(=O)CCC1O` (stereo not drawn): the GI50 is > 100 µM (inactive) in the test with SR; above 100 µM in the test on HCT-15; > 100 µM (inactive) in the test with HOP-62; > 100 µM (inactive) with SF-268; > 100 µM (inactive) in the test with SK-MEL-2; > 100 µM (inactive) with SK-MEL-5. Also, the GI50 with SW-620, with UO-31, in the test on NCI-H23, in the test on NCI-H226, in the test with OVCAR-3 and with SN12C was > 100 µM (inactive) in each case. For the same compound, the GI50 in the test with KM12, in the test with EKVX, in the test with U-251, with 786-0 and in the test with NCI-H460 was > 100 µM (inactive) in each case.
Consider `CC1C=CC(C(N)C(=O)O)O1` (stereo not drawn), for which the GI50 in the test with SR was > 100 µM (inactive); with HCT-15, above 100 µM; with HOP-62 it was > 100 µM (inactive); in the test with SF-268 it was > 100 µM (inactive); in the test with SK-MEL-2 it was > 100 µM (inactive); in the test with SK-MEL-5, > 100 µM (inactive). Also, the GI50 in the test with SW-620, in the test on UO-31, in the test with NCI-H23, with NCI-H226, in the test with OVCAR-3 and in the test with SN12C was > 100 µM (inactive) each time. The GI50 in the test with KM12, with EKVX, with U-251, in the test with 786-0 and in the test on NCI-H460 was > 100 µM (inactive) in each case.
As for `Nc1ccc2nc(Nc3ccc(Cl)c(Cl)c3)cnc2c1`, the GI50 in the test on SR is 2.44 µM (inactive); with HCT-15, 16.6 µM; in the test with HOP-62, 18.9 µM (inactive); with SF-268, 13.9 µM (inactive); in the test on SK-MEL-2, 20 µM (inactive); with SK-MEL-5, 37.2 µM (inactive). In addition, the GI50 is 17.9 µM (inactive) in the test with SW-620; 11.9 µM (inactive) in the test on UO-31; 22.4 µM (inactive) in the test on NCI-H23; 15.5 µM (inactive) with NCI-H226; 16.9 µM (inactive) with OVCAR-3; 14.9 µM (inactive) in the test on SN12C. The GI50 with KM12 is 15.6 µM (inactive); in the test with EKVX, 26.8 µM (inactive); in the test with U-251, 19.4 µM (inactive); with 786-0, 15.5 µM (inactive); with NCI-H460 it was 17.6 µM (inactive).
Consider `CC(C)C1=CC(=O)C(C)(C2C(O)CC3(C)C4CC=C5C(CCC(OC6OC(CO)C(O)C(O)C6OC6OC(C)C(O)C(O)C6O)C5(C)C)C4(C)C(=O)CC23C)O1` (stereo not drawn), for which the GI50 in the test on HCT-15 is above 100 µM; with HOP-62 it was > 100 µM (inactive); in the test with SF-268 it was > 100 µM (inactive); in the test with SK-MEL-5 it was > 100 µM (inactive); in the test with SW-620, > 100 µM (inactive); with UO-31, > 100 µM (inactive). Further, the GI50 in the test on NCI-H23, in the test with PC-3, with NCI-H226, in the test on OVCAR-3, with SN12C and in the test on KM12 was > 100 µM (inactive) each time. Moreover, the GI50 with EKVX, in the test with U-251, in the test on MDA-MB-231, in the test with 786-0, in the test on NCI-H460 and in the test on NCI/ADR-RES was > 100 µM (inactive) throughout.
With `COc1ccc(-c2c(C3=NCCCN3)nnn2-c2ccccc2)cc1`, the GI50 with SR is > 100 µM (inactive); with HCT-15, above 100 µM; in the test on HOP-62 it was > 100 µM (inactive); in the test on SF-268 it was > 100 µM (inactive); in the test with SK-MEL-2 it was > 100 µM (inactive); with SK-MEL-5, > 100 µM (inactive). In addition, the GI50 with SW-620, in the test with UO-31, in the test with NCI-H23, in the test with NCI-H226, in the test with OVCAR-3 and in the test on SN12C was > 100 µM (inactive) each time. In addition, the GI50 in the test on KM12, in the test on EKVX, in the test on U-251, in the test with 786-0 and in the test on NCI-H460 was > 100 µM (inactive) in each case.
For the compound `CCOC(=O)C(CC(C)C)NC(=O)C(N)Cc1ccc(N(CCCl)CCCl)cc1` (stereo not drawn), the concentration for 50% growth inhibition (GI50) is 0.0232 µM (active) in the test with SR; 2.38 µM with HCT-15; 4.86 µM (inactive) in the test with HOP-62; 3.56 µM (inactive) in the test with SF-268; 4.83 µM (inactive) with SK-MEL-2; 5.62 µM (inactive) with SK-MEL-5. In addition, the GI50 with SW-620 is 6.62 µM (inactive); in the test on UO-31 it was 2.17 µM (inactive); with NCI-H23 it was 1.57 µM (inactive); with PC-3, 10.9 µM (inactive); in the test on NCI-H226, 9.71 µM (inactive); in the test with OVCAR-3, 1.95 µM (inactive). Moreover, the GI50 in the test with SN12C is 5.6 µM (inactive); in the test on KM12, 12.9 µM (inactive); in the test with EKVX it was 17.9 µM (inactive); with U-251, 3.79 µM (inactive); with MDA-MB-231, 15.7 µM (inactive); in the test on 786-0, 1.69 µM (inactive). In addition, the GI50 in the test on NCI-H460 is 0.0478 µM (active).

A word on the GI50: it is the concentration giving 50% growth inhibition.
